Source: US5906922A, “Delivery of nucleic acids” (Commonwealth Scientific and Industrial Research Organisation, priority 1994, dated 1999)
Where a SMILES comes first, the peptide text is derived from it. The star is where a group is joined. NHC(CH2O-Palmitoyl)3 = CCCCCCCCCCCCCCCC(=O)OCC(COC(=O)CCCCCCCCCCCCCCC)(COC(=O)CCCCCCCCCCCCCCC)N*; X5 = CCCCCCCCCCCCCCCC(=O)OCC(CO)(COC(=O)CCCCCCCCCCCCCCC)N*; X1 = CCCCCCCCCCCCCCCC(=O)OCC(CO)(CO)N*; NHC(CH2OH)3 = OCC(CO)(CO)N*

How the values were obtained:
Cos 1 cells [1] = assay: β-gal microtitre plate transfection assay, Cos 1; assay type: cell-based, African Green Monkey
From the text: For experiment "c", a plasmid pPGKlaczNLS encoding β-galactosidase under the control of the mouse PGK promoter (kind gift from G.Hannan) or pSVGAL which utilises the SV40 early promoter (Sleigh, M. J. and Lockett, T. J. (1985). EMBO J. 4:3831-3837),was transfected. This experiment and assay were modified from Feigner et al J. Biol Chem. 269(4) 2550-2561 1994. This protocol allows the simultaneous assessment of 72 different combinations and concentrations of DNA and test agent in a microtitre tray. […] Cytotoxicity was assessed using alamar blue, and a sample graph is shown for experiment a.
Compounds were tested for their ability to transfect either the CAT or β-gal gene carried on plasmids, and assayed as described above.
(§1) The ratio of [lipid]/[DNA] at which that maximum was achieved is shown. Experiments shown were carried out in Cos 1 cells, as described above. MTS OD is a measure of relative viabilility of the cells exposed to the different agents, a higher value indicates greater cell viability. * These points were taken from a separate experiment and some slight variation between absolute numbers should be expected between experiments.
Each of these compounds was tested for transfection ability and cytotoxicity on standard cell lines using standard conditions as described above.
(§2) The ratio of [lipid]/[DNA] at which that maximum was achieved is shown in brackets for the two different cell types in the following order; (Cos 1) (CHO). Experiments shown were carried out in Cos 1 cells, as described above. Viability was measured with the dye alamar blue . # Denotes compounds tested in a separate experiment. * Viability in this experiment was determined with MTS. OD is a measure of relative viability of the cells exposed to the different agents, and as with alamar blue, a higher value indicates greater cell viability.

Cos 1 cells [2] = assay type: cell-based, African Green Monkey
Procedure: Relative levels of cytotoxicity were also assayed in subsequent experiments using the dye MTS, marketed as Cell titre 96 Aqueous (Promega).
as §1, §2

CHO cells = assay: Transfection of pSVLCAT, CAT assay, CHO; assay type: cell-based, Chinese Hamster; settings: for Transfection (CAT): Table 1, CHO, optimised level of agent
Procedure: Protocol was the same for Verafectin and Transfectam (see above) with the exception that 0.5 μg of pSVLCAT DNA was used /60 mm dish.
Lipofectamine protocol was according to manufacturer's instructions. 0.5 μg pSVLCAT/60 mm dish. CHO cells seeded 1×10^5 /60 mm dish and adhered overnight in DME/Hams medium with 10% FCS.
Transfectam 5 or 10 μl 1mg/400 μl stock solution.
Lipofectamine 5 or 10 μl 2 mg/ml (mixed formulation 3:1 with DOPE). VerafectinA3 (K3ATP3) and VerafectinG2 (K3G[Glycine]TP2) each at 5, 10 and 15 μl of 2 mM (2.8 and 2.3 mg/ml respectively) stock.
The serum free incubation period in the presence of test agents and DNA was 6 hours, then 1 ml DME/Hams+10% FCS was added. At 24 hrs the medium was changed to 2 ml of fresh DME/Hams+10% FCS until harvest at 48 hrs.
(§3) Cell lines Cos 1 or CHO were transfected with 0.5 μg of pSVLCAT or 2 μg of pPGKlacZ plasmid using a range of concentrations of each transfection compound. The optimal concentration of compound, that is the concentration giving the highest level of CAT at 48 hours or the greatest percentage of lac z (β-galactosidase) staining cells at 24 hours was used to collate data for Table 1. As all compounds were not tested in a single experiment, absolute figures indicating transfection were not used. Rather, symbols are used to indicate the transfection efficiency relative to Lipofectamine (BRL), which was included as a control in all experiments. Table 1 thus indicates the relative efficiencies of a number of compounds in mediating the transfection of at least one cell type.
(§4) All test lipopeptide reagents were originally dissolved at 10 mM in 75% DMSO, and subsequently diluted with water to make a 2 mM stock stored at 4° C. Volumes of 2 mM stock lipopeptide ranging from 2 μl to 15 μl were diluted in 500 μl of DDME. 1 μg of plasmid pSVLCAT was separately diluted in 500 μl of DDME. Solutions were combined for 10-20 min at room temperature before adding to 500 μl of DDME in 60 mm dishes of subconfluent CHO cells (2×10^5 day-1) or Cos 1 cells (5×10^5 day-1); washed free of serum with DDME.
(§5) Cells were incubated for 6 hrs under standard conditions of 37° C. and 5% CO2 for 6 hours. 1.5 ml of DME/Hams+10% FCS (CHO) or DME+10% FCS (Cos 1) was added to the cells for overnight incubation. Fresh DME/Hams+10% FCS or DME+10% FCS was used to replace the medium for a further 24 hours prior to harvest. Cell lysates were prepared and assayed for CAT activity as described above. For Cos 1 cells, culture supernatants were assayed for CAT activity.
a. Using the standard transfection procedure described above, and 1 μg plasmid pSVLCAT, these formulations were tested on CHO cells at a single concentration equivalent to 10 μl of Verafectin A2 (2 mM) per sample and compared to unformulated compound and Lipofectamine in the same cell type. CAT production was assayed 48 hours after transfection.

Cos 1 cells [3] = assay: Transfection of pSVLCAT, CAT assay, Cos 1; assay type: cell-based, African Green Monkey; settings: for Transfection (CAT): Table 1, Cos 1, optimised level of agent
Procedure: To test the transfection properties of the lead compound K3ATP3 (VerafectinA3), whole uncut plasmid carrying the gene encoding CAT (chloramphenicol acetyl transferase) under the control of the SV40 late promoter, pSVLCAT (Cameron, F. H. and Jennings, P. A. (1989) PNAS 86, 9139-9143) was mixed with the test agent and put on Cos 1 cells under various conditions. After 48 hours of culture the level of secreted CAT was assayed from the culture medium.
Solution I: 1 μg Plasmid DNA in 500 μl Dulbeccos Modified Eagles Medium (DME)
Solution II: 0-20 μl VerafectinA3 (2.5 mg/ml 25% DMSO) in 500 μl DME, Vortex
Combine solution I and II, vortex briefly and incubate at room temperature for 10 min.
Add mix to washed cells in 60 mm tissue culture dishes (seeded 0.5×10^6 /dish previous day) for 6 hrs at 37° C., 5% C02. Add 2 ml DME+10% FCS for remainder of 48 hrs. Assay CAT levels in tissue culture medium (Sleigh, M. J. (1986) Anal. Biochem. 156.251-256).
a--Compare VerafectinA3 dissolved in DMSO or ethanol.
b--Compare VerafectinA3 on cells 6 hrs to overnight. VerafectinA3 at 10 mg/ml in 100% solvent was diluted to 2.5 mg/ml with water.
Transfection was carried out as for experiment 1. VerafectinA3 was left in contact with the cells for varying times.
Protocol was the same for the Verafectins as described above. Lipofectamine protocol was according to manufacturers instructions. Cos 1 cells were seeded at 5×10^5 /60 mm dish and adhered overnight in DME with 10% FCS.
Solution A: 0.5 μg pSVLCAT/60 mm dish.
Solution B: Lipofectamine 10 and 15 μl 2 mg/ml (mixed formulation 3:1 with DOPE).
OR; VerafectinA3 and VerafectinG2 20 μl 2 mM (2.8 and 2.3 mg/ml respectively) stock.
OR; VerafectinG2 was also tested with an equimolar amount of DOPE. VerafectinG2 and DOPE were mixed in DDME and vortexed for 30 seconds before use. Solutions A and B were combined before overlaying on washed cells.
The serum free incubation period in the presence of test agents and DNA was 6 hrs, then 1 ml DME+10% FCS was added. At 24 hours medium was changed to 2 ml fresh DME+10% FCS until harvest at 48 hrs.
as §3, §4, §5
For transfection of pSVLCAT and subsequent assay of CAT enzyme, experiments "a" and "b" were carried out as described above.

[4] = "x" peptide experiment a, CHO, 25 μl lysate, 20 min assay at 37° C., optimal level

`CCCCCCCCCCCCCC(=O)OCC(CO)(COC(=O)CCCCCCCCCCCCC)NC(=O)[C@H](C)NC(=O)[C@H](CCCCN)NC(=O)[C@H](CCCCN)NC(=O)[C@@H](N)CCCCN` [K3ATM2] was tested, and the “ratio [lipid]/[DNA] at which maximum was achieved” value (Cos 1 cells [1]; Table 2, Cos 1) was 0.35, the “units β-gal” value (Cos 1 cells [1]; Table 2, Cos 1, highest reading of 72 conditions) was 3.46 × 10^-5 units and the “ratio [lipid]/[DNA] at which maximum was achieved” value (Cos 1 cells [1]; Table 3, Cos 1) was “.35”. For the same compound, the “β-gal (Cos 1)” value (Cos 1 cells [1]; Table 3, Cos 1, highest reading of 72 conditions) was 3.46 × 10^-5, the “MTS OD490-655” value (Cos 1 cells [2]) was 1.56 and the “Viability (Cos 1)” value (Cos 1 cells [2]) was 1.56.
With `CCCCCCCCCCCCCCCC(=O)OCC(CO)(COC(=O)CCCCCCCCCCCCCCC)NC(=O)[C@H](C)NC(=O)[C@H](CCCCN)NC(=O)[C@H](CCCCN)NC(=O)[C@H](CCCCN)NC(=O)[C@H](CCCCN)NC(=O)[C@@H](N)CCCCN` [K5ATP2] (H-KKKKKA-X5) the “CAT activity (mean)” value (CHO cells; [4]) was 132 cpm.
For `CCCCCCCCCCCCCCCC(=O)OCC(CO)(COC(=O)CCCCCCCCCCCCCCC)NC(=O)[C@H](C)NC(=O)[C@H](CCCCN)NC(=O)[C@H](CCCCN)NC(=O)[C@@H](N)CCCCN` [K3ATP2, trilysine alanine tris dipalmitate], the “Transfection (CAT)” value (Cos 1 cells [3]) was “+/-”, the “CAT levels relative to Lipofectamine, non-liposome formulation” value (CHO cells; CHO, unformulated) was “around 5%” and the “CAT activity (mean)” value (CHO cells; R1-R4 experiment e, CHO) was 984 cpm. The “Transfection (CAT)” value (CHO cells) was “+/-”.
`NCCCC[C@H](NC(=O)[C@H](CCCCN)NC(=O)[C@@H](N)CCCCN)C(=O)NCC(=O)NC(CO)(CO)CO` [K3GTP0] (H-KKKG-{NHC(CH2OH)3}) was tested, and the “Transfection (CAT)” value (Cos 1 cells [3]) was “-”.
In the case of `CCCCCCCCCCCCCCCC(=O)OCC(CO)(CO)NC(=O)CNC(=O)[C@H](CCCCN)NC(=O)[C@H](CCCCN)NC(=O)[C@@H](N)CCCCN` [K3GTP1] (H-KKKG-X1), the “Transfection (CAT)” value (Cos 1 cells [3]) is reported as “+” and the “Transfection (CAT)” value (CHO cells) is reported as “+”.
In the case of `CCCCCCCCCCCCCCCC(=O)OCC(CO)(COC(=O)CCCCCCCCCCCCCCC)NC(=O)[C@H](C)NC(=O)[C@H](CCCCN)NC(=O)[C@H](CCCCN)NC(=O)[C@H](CCCCN)NC(=O)[C@@H](N)CCCCN` [K4ATP2] (H-KKKKA-X5), the “Transfection (CAT)” value (Cos 1 cells [3]) is reported as “+”.
In the case of `CCCCCCCCCCCCCCCC(=O)OCC(COC(=O)CCCCCCCCCCCCCCC)(COC(=O)CCCCCCCCCCCCCCC)NC(=O)CNC(=O)[C@H](CCCCN)NC(=O)[C@H](CCCCN)NC(=O)[C@@H](N)CCCCN` [K3GTP3] (H-KKKG-{NHC(CH2O-Palmitoyl)3}), the “Transfection (CAT)” value (Cos 1 cells [3]) is reported as “+/-” and the “Transfection (CAT)” value (CHO cells) is reported as “+”.
For `CCCCCCCCCCCCCCCC(=O)OCC(CO)(COC(=O)CCCCCCCCCCCCCCC)NC(=O)[C@H](C)NC(=O)[C@H](CCCCN)NC(=O)[C@@H](N)CCCCN` [K2ATP2], the “transfection with second lysine relative to single K” value (Cos 1 cells [3]; "x" peptide experiment b, Cos 1) was roughly 5 times, the “CAT activity (mean)” value (Cos 1 cells [3]; "x" peptide experiment b, Cos 1, 25 μl lysate, 135 min 37° C.) was 62,215 cpm and the “transfection, linkers A and L compared” value (Cos 1 cells [3]; "y" linker experiment b, Cos 1) was “very similar activities”. The “CAT activity (mean)” value (CHO cells; [4]) was 5418 cpm.
